Results as given in patent publication US12590075B2, “Refining method” (NGK Insulators, Ltd., priority 2020, dated 2026).

Assay: Dissolution time / dissolution rate of the raw material in a solvent (stereoscopic microscope, heating stage)
Type: physicochemical
Details: heating stage 50±5° C., order of solvents; for Dissolution rate of the raw material (Arranged in order from the fastest to the slowest): 25 mg compound in 2 mL solvent
Method: The dissolution time of the raw material of febuxostat in a solvent was examined as described below. […] First, a heating stage ([…], Mettler) was installed in a stereoscopic microscope (SZX16, Olympus Corporation), and the surface temperature of the heating stage was maintained at 50±5° C. 25 mg of febuxostat (product code […], Tokyo Chemical Industry Co., Ltd.) was weighed into a flat laboratory dish (φ32 mm×16 mm), and 2 mL of the solvent was weighed and added to the laboratory dish, which was then immediately covered with a glass lid. The laboratory dish was placed on the heating stage. […] As a result, the dissolution time was ethanol<2-propanol<acetonitrile (in other words, the dissolution rate was ethanol>2-propanol>acetonitrile). […] The dissolution times of the raw materials of loxoprofen and diclofenac in the solvents were also examined in the same manner as febuxostat.

Dissolution rate of the raw material (Arranged in order from the fastest to the slowest) | Dissolution rate of the raw material (Arranged in order from the fastest to the slowest) (listed as febuxostat) | dissolution time (25 mg in 2 mL solvent, time until no undissolved material observed) | SMILES
Ethanol, 2-propanol, Acetonitrile | ethanol>2-propanol>acetonitrile | ethanol<2-propanol<acetonitrile | Cc1nc(-c2ccc(OCC(C)C)c(C#N)c2)sc1C(=O)O [Febuxostat, febuxostat]
Ethanol, Ethanol/IPA^※1 |  |  | O=C(O)Cc1ccccc1Nc1c(Cl)cccc1Cl [Diclofenac, diclofenac]
Ethanol, 2-propanol |  |  | CC(C(=O)O)c1ccc(CC2CCCC2=O)cc1 (centres unmarked) [Loxoprofen, loxoprofen]
